# Reference: article PMC10700596 (Nature Communications, 2023)
# pKi: −log10 of the molar value. Several values for one entry are separate records, joined by “and”; a condition that tells them apart may be missing. Equal values may be shown once. Read-outs that look alike come from different tables or passages of the source.
# Legend:
# 320 GPCRs [1] = target: 320 GPCRs (Homo sapiens, UniProt O15218); format: cell-based
# 320 GPCRs [2] = target: 320 GPCRs (Homo sapiens, UniProt O00270); format: cell-based
# 320 GPCRs [3] = target: 320 GPCRs (Homo sapiens, UniProt Q96LB0); format: cell-based
# 320 GPCRs [4] = target: 320 GPCRs (Homo sapiens, UniProt O95136); format: cell-based
# 320 GPCRs [5] = target: 320 GPCRs (Homo sapiens, UniProt P35462); format: cell-based
# 320 GPCRs [6] = target: 320 GPCRs (Homo sapiens, UniProt P30411); format: cell-based
# 320 GPCRs [7] = target: 320 GPCRs (Homo sapiens, UniProt P25090); format: cell-based
# 320 GPCRs [8] = target: 320 GPCRs (Homo sapiens, UniProt O00155); format: cell-based
# 320 GPCRs [9] = target: 320 GPCRs (Homo sapiens, UniProt P41594); format: cell-based
# 320 GPCRs [10] = target: 320 GPCRs (Homo sapiens, UniProt P43115); format: cell-based
# 320 GPCRs [11] = target: 320 GPCRs (Homo sapiens, UniProt P43088); format: cell-based
# 320 GPCRs [12] = target: 320 GPCRs (Homo sapiens, UniProt Q96P69); format: cell-based
# 320 GPCRs [13] = target: 320 GPCRs (Homo sapiens, UniProt P41146); format: cell-based
# 320 GPCRs [14] = target: 320 GPCRs (Homo sapiens, UniProt Q7Z601); format: cell-based
# 320 GPCRs [15] = target: 320 GPCRs (Homo sapiens, UniProt Q13255); format: cell-based
# 320 GPCRs [16] = target: 320 GPCRs (Homo sapiens, UniProt Q9UJ42); format: cell-based
# 320 GPCRs [17] = target: 320 GPCRs (Homo sapiens, UniProt Q8NFJ6); format: cell-based
# 320 GPCRs [18] = target: 320 GPCRs (Homo sapiens, UniProt O00222); format: cell-based
# 320 GPCRs [19] = target: 320 GPCRs (Homo sapiens, UniProt P35348); format: cell-based
# 320 GPCRs [20] = target: 320 GPCRs (Homo sapiens, UniProt Q8IZF5); format: cell-based
# 320 GPCRs [21] = target: 320 GPCRs (Homo sapiens, UniProt O15303); format: cell-based
# 320 GPCRs [22] = target: 320 GPCRs (Homo sapiens, UniProt P14416); format: cell-based
# 320 GPCRs [23] = target: 320 GPCRs (Homo sapiens, UniProt O00574); format: cell-based
# 320 GPCRs [24] = target: 320 GPCRs (Homo sapiens, UniProt Q9Y653); format: cell-based
# EP4R = target: T1, EP4R (Homo sapiens, UniProt P35408); test: PRESTO-Tango β-arrestin2 recruitment assay; format: cell-based
# T1 construct: Tango fusion cassette (only 'tango' is printed); expressed in transfected cells; host or cells: HTLA cells (tTA-dependent luciferase reporter, β-arrestin2-TEV fusion)
# in vivo = format: in vivo, mice; settings: mice
# [25] = male, CD-1, mouse, CSF, ip, 10 mg/kg, IP 10 mg/kg, CSF, mean, read-out: CSF concentrations of cmpd 7827_0016 in mice following IP (10 mg/kg) administration, C
# [26] = male, CD-1, mouse, brain, ip, 10 mg/kg, IP 10 mg/kg, brain, individual animals, read-out: Brain concentration, Final
# [27] = male, CD-1, mouse, brain, ip, 10 mg/kg, IP 10 mg/kg, brain, mean, read-out: Brain concentrations of cmpd 7827_0016 in mice following IP (10 mg/kg) administration, C
# Sequence of 320 GPCRs (Homo sapiens, UniProt O15303) (O15303 25-877): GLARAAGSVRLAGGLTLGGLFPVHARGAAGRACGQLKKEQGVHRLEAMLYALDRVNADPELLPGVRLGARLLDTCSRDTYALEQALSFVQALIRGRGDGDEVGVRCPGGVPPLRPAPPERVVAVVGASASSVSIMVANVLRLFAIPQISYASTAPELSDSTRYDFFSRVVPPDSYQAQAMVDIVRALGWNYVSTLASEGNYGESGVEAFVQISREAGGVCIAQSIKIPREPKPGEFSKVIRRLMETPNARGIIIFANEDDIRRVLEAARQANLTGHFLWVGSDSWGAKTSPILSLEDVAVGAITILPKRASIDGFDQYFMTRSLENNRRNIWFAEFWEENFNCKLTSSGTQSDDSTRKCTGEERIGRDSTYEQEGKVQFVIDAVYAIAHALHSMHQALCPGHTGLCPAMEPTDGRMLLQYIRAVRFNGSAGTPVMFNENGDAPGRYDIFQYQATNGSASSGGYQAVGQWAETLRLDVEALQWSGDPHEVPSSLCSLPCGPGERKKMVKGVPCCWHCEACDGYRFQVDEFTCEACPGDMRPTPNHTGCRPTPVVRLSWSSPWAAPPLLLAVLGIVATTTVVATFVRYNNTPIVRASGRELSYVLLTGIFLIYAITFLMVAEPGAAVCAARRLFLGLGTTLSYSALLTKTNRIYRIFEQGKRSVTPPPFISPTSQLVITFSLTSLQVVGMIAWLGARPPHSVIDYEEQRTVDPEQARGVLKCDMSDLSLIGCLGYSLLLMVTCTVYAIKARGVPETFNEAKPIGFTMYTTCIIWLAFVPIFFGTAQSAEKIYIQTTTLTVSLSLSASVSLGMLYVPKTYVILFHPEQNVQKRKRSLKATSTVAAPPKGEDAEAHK
# Sequence of 320 GPCRs (Homo sapiens, UniProt Q13255) (Q13255 19-1194): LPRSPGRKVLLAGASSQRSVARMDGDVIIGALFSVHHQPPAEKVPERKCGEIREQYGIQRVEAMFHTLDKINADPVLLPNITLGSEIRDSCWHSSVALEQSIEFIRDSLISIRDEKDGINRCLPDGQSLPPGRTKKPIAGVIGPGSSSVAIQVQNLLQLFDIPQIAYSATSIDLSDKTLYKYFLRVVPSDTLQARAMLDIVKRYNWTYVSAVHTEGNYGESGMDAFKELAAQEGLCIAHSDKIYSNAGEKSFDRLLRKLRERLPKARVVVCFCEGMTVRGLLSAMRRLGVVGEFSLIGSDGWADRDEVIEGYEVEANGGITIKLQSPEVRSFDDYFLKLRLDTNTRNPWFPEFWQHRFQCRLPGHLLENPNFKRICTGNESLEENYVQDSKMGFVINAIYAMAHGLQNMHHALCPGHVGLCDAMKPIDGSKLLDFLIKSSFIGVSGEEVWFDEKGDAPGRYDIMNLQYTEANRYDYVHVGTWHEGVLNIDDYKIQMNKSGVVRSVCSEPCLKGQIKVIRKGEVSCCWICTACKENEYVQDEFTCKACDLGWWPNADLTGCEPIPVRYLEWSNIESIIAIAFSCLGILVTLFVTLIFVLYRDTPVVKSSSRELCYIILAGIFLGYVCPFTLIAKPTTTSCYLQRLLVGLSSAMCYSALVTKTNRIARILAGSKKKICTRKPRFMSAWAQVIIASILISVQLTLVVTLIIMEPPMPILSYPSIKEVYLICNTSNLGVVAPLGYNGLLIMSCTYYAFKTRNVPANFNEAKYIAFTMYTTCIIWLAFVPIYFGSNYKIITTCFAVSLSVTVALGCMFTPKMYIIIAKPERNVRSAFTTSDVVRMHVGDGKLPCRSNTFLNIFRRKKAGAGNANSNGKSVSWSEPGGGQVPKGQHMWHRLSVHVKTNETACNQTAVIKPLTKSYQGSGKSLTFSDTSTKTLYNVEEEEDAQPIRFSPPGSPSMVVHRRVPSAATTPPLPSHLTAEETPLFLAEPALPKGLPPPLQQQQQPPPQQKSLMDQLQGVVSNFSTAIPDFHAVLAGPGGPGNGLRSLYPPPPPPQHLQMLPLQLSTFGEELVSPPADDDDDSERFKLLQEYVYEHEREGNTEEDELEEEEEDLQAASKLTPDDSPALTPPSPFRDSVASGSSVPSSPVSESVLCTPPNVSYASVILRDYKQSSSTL
# Sequence of 320 GPCRs (Homo sapiens, UniProt P41146) (P41146 whole entry): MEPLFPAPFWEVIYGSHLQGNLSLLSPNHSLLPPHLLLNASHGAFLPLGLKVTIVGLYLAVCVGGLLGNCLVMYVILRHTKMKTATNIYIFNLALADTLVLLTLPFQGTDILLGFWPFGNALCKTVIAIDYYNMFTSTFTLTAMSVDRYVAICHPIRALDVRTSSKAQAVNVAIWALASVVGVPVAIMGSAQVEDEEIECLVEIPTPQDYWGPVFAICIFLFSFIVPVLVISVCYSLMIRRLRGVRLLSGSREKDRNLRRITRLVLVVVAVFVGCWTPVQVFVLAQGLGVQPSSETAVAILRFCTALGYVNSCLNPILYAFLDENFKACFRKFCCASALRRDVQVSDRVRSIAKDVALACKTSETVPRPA
# Sequence of 320 GPCRs (Homo sapiens, UniProt P25090) (P25090 whole entry): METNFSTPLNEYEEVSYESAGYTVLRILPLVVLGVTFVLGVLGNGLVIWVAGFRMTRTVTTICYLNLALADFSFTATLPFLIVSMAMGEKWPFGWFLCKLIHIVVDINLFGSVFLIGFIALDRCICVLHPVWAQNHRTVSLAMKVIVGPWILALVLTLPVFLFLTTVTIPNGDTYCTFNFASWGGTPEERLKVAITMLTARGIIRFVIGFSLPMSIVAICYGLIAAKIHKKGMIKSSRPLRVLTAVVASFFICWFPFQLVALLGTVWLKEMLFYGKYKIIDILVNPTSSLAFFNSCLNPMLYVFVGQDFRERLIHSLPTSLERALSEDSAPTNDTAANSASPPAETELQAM
# Sequence of 320 GPCRs (Homo sapiens, UniProt P41594) (P41594 21-1212): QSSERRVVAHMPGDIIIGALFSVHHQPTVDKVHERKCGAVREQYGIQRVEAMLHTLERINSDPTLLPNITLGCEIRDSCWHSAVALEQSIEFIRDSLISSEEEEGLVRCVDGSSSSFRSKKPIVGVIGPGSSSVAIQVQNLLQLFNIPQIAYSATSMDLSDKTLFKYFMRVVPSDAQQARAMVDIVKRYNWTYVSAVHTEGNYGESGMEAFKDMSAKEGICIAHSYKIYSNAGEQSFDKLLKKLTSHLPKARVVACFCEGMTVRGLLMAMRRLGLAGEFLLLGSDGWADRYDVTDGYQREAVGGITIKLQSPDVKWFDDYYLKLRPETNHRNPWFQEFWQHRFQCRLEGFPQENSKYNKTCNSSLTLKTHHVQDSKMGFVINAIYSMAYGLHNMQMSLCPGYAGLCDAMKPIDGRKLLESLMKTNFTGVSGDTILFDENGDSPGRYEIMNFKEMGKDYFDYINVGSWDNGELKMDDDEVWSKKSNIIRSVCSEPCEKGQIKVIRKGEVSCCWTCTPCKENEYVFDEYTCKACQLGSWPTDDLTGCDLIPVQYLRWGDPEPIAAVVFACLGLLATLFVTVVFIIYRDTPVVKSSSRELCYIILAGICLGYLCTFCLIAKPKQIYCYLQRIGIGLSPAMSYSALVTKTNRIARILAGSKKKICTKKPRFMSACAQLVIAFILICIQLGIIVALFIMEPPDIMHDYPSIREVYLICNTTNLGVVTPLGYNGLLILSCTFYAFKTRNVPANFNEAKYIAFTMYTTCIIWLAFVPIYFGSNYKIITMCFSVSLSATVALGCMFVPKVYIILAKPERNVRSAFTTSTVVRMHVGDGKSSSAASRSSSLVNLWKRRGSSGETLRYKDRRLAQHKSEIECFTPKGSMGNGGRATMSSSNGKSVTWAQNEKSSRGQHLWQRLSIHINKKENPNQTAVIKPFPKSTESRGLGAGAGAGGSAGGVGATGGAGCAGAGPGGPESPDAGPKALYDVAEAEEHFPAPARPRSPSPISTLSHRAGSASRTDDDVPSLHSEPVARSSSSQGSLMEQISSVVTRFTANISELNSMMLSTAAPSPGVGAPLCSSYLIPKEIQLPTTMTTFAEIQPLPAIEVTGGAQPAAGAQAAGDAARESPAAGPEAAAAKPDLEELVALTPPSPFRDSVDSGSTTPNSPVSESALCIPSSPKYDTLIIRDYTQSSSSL
# Sequence of 320 GPCRs (Homo sapiens, UniProt O00574) (O00574 whole entry): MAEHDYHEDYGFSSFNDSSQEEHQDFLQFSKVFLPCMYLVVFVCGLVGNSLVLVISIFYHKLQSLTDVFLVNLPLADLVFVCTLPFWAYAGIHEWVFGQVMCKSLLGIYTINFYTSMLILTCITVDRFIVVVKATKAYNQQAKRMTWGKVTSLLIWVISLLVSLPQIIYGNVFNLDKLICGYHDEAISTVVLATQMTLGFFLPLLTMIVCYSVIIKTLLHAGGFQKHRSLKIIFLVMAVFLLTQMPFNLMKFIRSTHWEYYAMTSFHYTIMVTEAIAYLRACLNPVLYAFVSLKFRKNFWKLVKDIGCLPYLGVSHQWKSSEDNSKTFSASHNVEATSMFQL
# Sequence of 320 GPCRs (Homo sapiens, UniProt Q9Y653) (Q9Y653 26-693): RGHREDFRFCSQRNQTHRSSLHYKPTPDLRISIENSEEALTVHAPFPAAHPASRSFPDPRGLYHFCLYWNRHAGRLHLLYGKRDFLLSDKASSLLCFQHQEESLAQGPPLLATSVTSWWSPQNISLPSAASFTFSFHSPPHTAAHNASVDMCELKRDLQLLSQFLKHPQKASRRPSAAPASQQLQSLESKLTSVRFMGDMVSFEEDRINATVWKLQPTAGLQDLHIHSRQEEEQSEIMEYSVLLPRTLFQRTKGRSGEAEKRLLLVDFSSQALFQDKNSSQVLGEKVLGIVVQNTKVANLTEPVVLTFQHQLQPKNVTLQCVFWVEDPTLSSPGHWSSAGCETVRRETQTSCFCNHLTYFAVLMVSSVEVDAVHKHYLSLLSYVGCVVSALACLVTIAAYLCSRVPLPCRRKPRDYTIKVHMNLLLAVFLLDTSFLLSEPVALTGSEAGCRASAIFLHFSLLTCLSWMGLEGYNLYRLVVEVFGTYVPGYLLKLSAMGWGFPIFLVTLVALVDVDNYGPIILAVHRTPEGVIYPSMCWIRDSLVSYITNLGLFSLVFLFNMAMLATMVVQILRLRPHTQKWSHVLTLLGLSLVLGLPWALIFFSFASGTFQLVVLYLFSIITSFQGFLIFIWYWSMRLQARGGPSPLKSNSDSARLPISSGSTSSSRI
smiles,measurement,setting,value
"O=C(O)C1CCC2(CC1)CC(Nc1ncnc3[nH]c4c(F)cccc4c13)C2 (centres unmarked) [Compound 74, OC(=O)C1CCC2(CC(C2)NC=3N=CN=C4NC=5C(F)=CC=CC5C34)CC1]",RLU (Fold over Basal),320 GPCRs [1],0.5 Fold over Basal and 0.9 Fold over Basal and 0.6 Fold over Basal
same,RLU (Fold over Basal),320 GPCRs [2],1.8 Fold over Basal and 1.3 Fold over Basal
same,RLU (Fold over Basal),320 GPCRs [3],1 Fold over Basal and 1.4 Fold over Basal and 0.9 Fold over Basal
same,RLU (Fold over Basal),320 GPCRs [4],0.3 Fold over Basal and 0.2 Fold over Basal
same,RLU (Fold over Basal),320 GPCRs [5],0.5 Fold over Basal and 0.6 Fold over Basal
same,RLU (Fold over Basal),320 GPCRs [6],0.4 Fold over Basal and 0.5 Fold over Basal and 0.6 Fold over Basal
same,RLU (Fold over Basal),320 GPCRs [7],1.2 Fold over Basal and 1.5 Fold over Basal and 1.6 Fold over Basal and 0.9 Fold over Basal
same,RLU (Fold over Basal),320 GPCRs [8],1.1 Fold over Basal and 1 Fold over Basal and 0.7 Fold over Basal and 0.6 Fold over Basal
same,RLU (Fold over Basal),320 GPCRs [9],0.8 Fold over Basal and 1.3 Fold over Basal and 0.9 Fold over Basal and 0.7 Fold over Basal
same,RLU (Fold over Basal),320 GPCRs [10],0.5 Fold over Basal and 0.7 Fold over Basal
same,RLU (Fold over Basal),320 GPCRs [11],1.2 Fold over Basal and 1.4 Fold over Basal and 1 Fold over Basal
same,RLU (Fold over Basal),320 GPCRs [12],1 Fold over Basal and 0.5 Fold over Basal and 0.9 Fold over Basal
same,RLU (Fold over Basal),320 GPCRs [13],0.8 Fold over Basal and 0.7 Fold over Basal and 1.3 Fold over Basal and 0.9 Fold over Basal
same,RLU (Fold over Basal),320 GPCRs [14],0.6 Fold over Basal and 1 Fold over Basal
same,RLU (Fold over Basal),320 GPCRs [15],0.9 Fold over Basal and 1.1 Fold over Basal and 0.8 Fold over Basal
same,RLU (Fold over Basal),320 GPCRs [16],4 Fold over Basal and 2 Fold over Basal and 3.4 Fold over Basal and 3.2 Fold over Basal
same,RLU (Fold over Basal),320 GPCRs [17],0.7 Fold over Basal and 1.4 Fold over Basal and 1.3 Fold over Basal and 1.1 Fold over Basal
same,RLU (Fold over Basal),320 GPCRs [18],1.1 Fold over Basal and 0.8 Fold over Basal and 1.5 Fold over Basal
same,RLU (Fold over Basal),320 GPCRs [19],0.4 Fold over Basal and 0.7 Fold over Basal and 0.8 Fold over Basal
same,RLU (Fold over Basal),320 GPCRs [20],1.6 Fold over Basal and 1.9 Fold over Basal and 1.1 Fold over Basal and 1.2 Fold over Basal
same,RLU (Fold over Basal),320 GPCRs [21],1.6 Fold over Basal and 0.8 Fold over Basal and 1 Fold over Basal
same,RLU (Fold over Basal),320 GPCRs [22],0.6 Fold over Basal and 0.5 Fold over Basal
same,RLU (Fold over Basal),320 GPCRs [23],0.7 Fold over Basal and 1.2 Fold over Basal and 0.9 Fold over Basal and 0.6 Fold over Basal
same,RLU (Fold over Basal),320 GPCRs [24],0.9 Fold over Basal and 0.7 Fold over Basal and 0.8 Fold over Basal
same,IC50,EP4R; PRESTO-Tango IC50 (nM),302 nM
same,pKi,"EP4R; calculated using the Cheng Prusoff equation, read-out: PRESTO-Tango Ki*",7.22
same,brain and cerebral spinal fluid exposure,in vivo; 10 mg/kg i.p.,only marginal brain and cerebral spinal fluid exposure
same,concentration at 5 min,in vivo; [25],15.7 ng/mL
same,concentration at 15 min,in vivo; [25],70.5 ng/mL
same,concentration at 30 min,in vivo; [25],80.6 ng/mL
same,concentration at 60 min,in vivo; [25],158 ng/mL
same,concentration at 120 min,in vivo; [25],119 ng/mL
same,concentration at 240 min,in vivo; [25],26 ng/mL
same,concentration at 360 min,"in vivo; male, CD-1, mouse, CSF, ip, 10 mg/kg, IP 10 mg/kg, CSF, individual animals, read-out: CSF concentration, Final",98.6 ng/mL
same,concentration at 360 min,in vivo; [25],80.9 ng/mL
same,concentration at 480 min,"in vivo; male, CD-1, mouse, CSF, ip, 10 mg/kg, IP 10 mg/kg, CSF, 480 min, mean, read-out: CSF concentrations of cmpd 7827_0016 in mice following IP (10 mg/kg) administration, C",7.31 ng/mL
same,concentration at 1440 min,"in vivo; male, CD-1, mouse, CSF, ip, 10 mg/kg, IP 10 mg/kg, CSF, 1440 min, mean, read-out: CSF concentrations of cmpd 7827_0016 in mice following IP (10 mg/kg) administration, C",10.8 ng/mL
same,concentration at 5 min,in vivo; [26],58.9 ng/g
same,concentration at 5 min,in vivo; [27],61.1 ng/g
same,concentration at 15 min,in vivo; [26],152 ng/g
same,concentration at 15 min,in vivo; [27],135 ng/g
same,concentration at 30 min,in vivo; [26],150 ng/g
same,concentration at 30 min,in vivo; [27],203 ng/g
same,concentration at 60 min,in vivo; [26],182 ng/g
same,concentration at 60 min,in vivo; [27],160 ng/g
same,concentration at 120 min,in vivo; [27],82.1 ng/g
same,concentration at 240 min,in vivo; [26],21.6 ng/g
